Measured values reported in patent US12509460B2 (Skyhawk Therapeutics, Inc., priority 2019, dated 2025).
Read-outs that look alike come from different tables or passages of the source.

Experiments:
[1] = test system: SMN protein in spinal muscular atrophy (SMA) patient fibroblasts (GM03813, Coriell); test: SMN protein assay, Mesoscale Discovery (MSD); assay type: cell-based, human; settings: SMA patient fibroblasts GM03813, 48 hours, MSD; for EC50: read-out: SMN2 protein EC50
Procedure, shortened: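 Absolute SMN levels were quantified by MSD against an SMN protein standard curve (1 μg/ml to 19.5 pg/ml) run on each plate. Samples were lysates of GM03813 patient fibroblasts (7000 cells/well) treated 48 hours with compound doses from 2.5 μM down to 0.6 nM.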

MDR1 (P-gp) = test: Blood-brain-barrier (BBB) penetration potential via MDCK-MDR1 permeability assay; settings: dog; for Papp A→B at 120 min, 5 μM: MDCK-MDR1, pH 7.4, MDCK-MDR1: Papp A-B, A-B direction; for Papp B→A at 120 min, 5 μM: MDCK-MDR1, pH 7.4, MDCK-MDR1: Papp B-A, B-A direction
[2] = test system: MDR1-MDCK cell monolayers; test: as above
MDR1 = test: as above; settings: dog, MDCK-MDR1, pH 7.4, MDCK-MDR1: Efflux, efflux ratio
[3] = Quantitative splicing assay (HTT), qPCR; assay type: cell-based, human; settings: Homo sapiens, GM04724, 24 h, GM04724 lymphoblasts, qPCR, read-out: HTT Splicing: E49-50 EC50
Description: Example A9: Quantitative Splicing Assay (HTT)
GM04724 (CAG 70/20) Huntington's disease patient lymphoblasts (Coriell) are plated in 96-well v-bottom plates at 50,000 cells/well. Immediately after plating, cells are dosed with compound for 24 h at concentrations ranging from 2.5 uM to 0.15 nM (0.1% DMSO). Treated cells are lysed and cDNA synthesized using the Fast Advanced Cells-to-Ct kit (Thermofisher A35378) according to the manufacturer's instructions. 2 uL of each cDNA are used in qPCR reactions to confirm the compound-induced inclusion of a cryptic exon within intron 49 of the Huntingtin (HTT) transcripts. The qPCR reactions are prepared in 384-well plates in 10 uL volume, using TagMan™ Fast Advanced Master Mix [ThermoFisher, 4444965] with primers and probes shown in the table below. Reactions are run in a Quant studio 6 qPCR instrument with default settings.

[4] = test system: SMN FL and SMN Δ7 in spinal muscular atrophy (SMA) patient fibroblasts (GM03813, Coriell); test: Quantitative splicing assay (SMN), qPCR; assay type: cell-based, human; settings: SMA patient fibroblasts GM03813, 24 h, qPCR, read-out: SMN2 Splicing FL EC50
Description: Spinal muscular atrophy (SMA) patient fibroblasts (GM03813, Coriell) are plated in 96-well plates at 50,000 cells/well. […] Treated cells are lysed and cDNA synthesized using the Fast Advanced Cells-to-Ct kit (Thermofisher A35378) according to the manufacturer's instructions. 2 μL of each cDNA are used in qPCR reactions. […] Reactions are run in a Quant Studio 6 qPCR instrument with default settings.

[5] = test system: mHTT protein in GM04724 (CAG 70/20) Huntington's disease patient lymphoblast cells; test: mHTT protein assay, 2B7-MW1 assay via Mesoscale Discovery (MSD); assay type: cell-based, human; settings: GM04724 Huntington's disease patient lymphoblasts
Procedure, shortened: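 Signal from the 2B7-MW1 antibody pair on MSD, rising with polyQ length and smaller HTT fragments, measured mHTT after 48 h compound exposure (0.6 nM–10 μM) in GM04724 cells. A parallel replicate plate gave CellTiter Glo viability.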

Row | SMILES | EC50 [1] [nM] | Papp A→B at 120 min, 5 μM (MDR1 (P-gp)) [×10⁻⁶ cm/s] | Papp B→A at 120 min, 5 μM (MDR1 (P-gp)) [×10⁻⁶ cm/s] | MDCK-MDR1: % Recov A-B ([2]; A-B direction) [%] | MDCK-MDR1: % Recov B-A ([2]; B-A direction) [%] | efflux ratio at 120 min, 5 μM (MDR1) | EC50 [3] [nM] | EC50 ([4]; Homo sapiens, Fibroblast, 24 h) [nM] | EC50 [5] [nM] | SMN2 protein EC50 [1] | MDCK-MDR1: Papp A-B ([2]; A-B direction) | MDCK-MDR1: Papp B-A ([2]; B-A direction) | MDCK-MDR1: Efflux ([2]; efflux ratio) | EC50 [4] [nM]
1 | C#Cc1ccc(-c2ccc(N(C)[C@H]3C[C@@H]4CC[C@@H](N4)[C@H]3F)nn2)c(O)c1 [Compound 10B, 5-ethynyl-2-(6-(((1R,2R,3S,5S)-2-fluoro-8-azabicyclo[3.2.1]octan-3-yl)(methyl)amino)pyridazin-3-yl)phenol] | 0.01 to 15 | 11.2 | 21.2 | 52 | 82 | 2 | 51 to 100 | 51 to 100 | 51 to 100 |  |  |  |  | 
2 | CN(c1ccc(-c2ccc(-c3nnco3)cc2O)nn1)[C@H]1C[C@@H]2CC[C@@H](N2)[C@H]1F [Compound 44B, 2-(6-(((1R,2R,3S,5S)-2-fluoro-8-azabicyclo[3.2.1]octan-3-yl)(methyl)amino)pyridazin-3-yl)-5-(1,3,4-oxadiazol-2-yl)phenol] | 16 to 50 | 8.2 | 54.7 | 91 | 92 | 7 | 0.01 to 15 | 0.01 to 15 | 0.01 to 15 |  |  |  |  | 
3 | Cc1cnc(-c2ccc(-c3ccc(N(C)[C@H]4C[C@@H]5CCC[C@@H](N5)[C@H]4F)nn3)c(O)c2)o1 [Compound 16B, 2-(6-(((1R,2R,3S,5S)-2-fluoro-9-azabicyclo[3.3.1]nonan-3-yl)(methyl)amino)pyridazin-3-yl)-5-(5-methyloxazol-2-yl)phenol] | 0.01 to 15 | 1.16 | 18.7 | 24 | 26 | 16 | 0.01 to 15 | 16 to 50 | 16 to 50 |  |  |  |  | 
4 | CN(c1ccc(-c2ccc(-n3ccnn3)cc2O)nn1)[C@H]1C[C@@H]2CCC[C@@H](N2)[C@H]1F [Compound 62B, 2-(6-(((1R,2R,3S,5S)-2-fluoro-9-azabicyclo[3.3.1]nonan-3-yl)(methyl)amino)pyridazin-3-yl)-5-(1H-1,2,3-triazol-1-yl)phenol] | 0.01 to 15 | 3.18 | 59.8 | 82 | 80 | 19 | 0.01 to 15 | 0.01 to 15 | 0.01 to 15 |  |  |  |  | 
5 | CN(c1ccc(-c2ccc(-c3ccn(C)n3)cc2O)nn1)[C@H]1C[C@@H]2CC[C@@H](N2)[C@H]1F (single isomer, unassigned) [Compound 36B] | 0.01 to 15 | 5.87 | 41.8 | 72 | 79 | 7 | 0.01 to 15 | 0.01 to 15 | 0.01 to 15 |  |  |  |  | 
6 | CN(c1ccc(-c2ccc(-c3cc[nH]n3)cc2O)nn1)[C@H]1C[C@@H]2CC[C@@H](N2)[C@H]1F (single isomer, unassigned) [Compound 33B] | 0.01 to 15 | 1.75 | 53 | 87 | 82 | 30 | 0.01 to 15 | 16 to 50 | 0.01 to 15 |  |  |  |  | 
7 | CN(c1ccc(-c2cc3nccnc3cc2O)nn1)[C@H]1C[C@@H]2CC[C@@H](N2)[C@H]1F [Compound 88B, 7-(6-(((1R,2R,3S,5S)-2-fluoro-8-azabicyclo[3.2.1]octan-3-yl)(methyl)amino)pyridazin-3-yl)quinoxalin-6-ol] | 0.01 to 15 | 6.88 | 50.5 | 84 | 93 | 7 | 16 to 50 | 16 to 50 | 16 to 50 |  |  |  |  | 
8 | COc1cc(-c2ccc(-c3ccc(N(C)[C@H]4CC5N[C@@H](C4)CC5(F)F)nn3)c(O)c2)cnn1 (single isomer, unassigned) [Compound 2B] |  |  |  | 54 | 84 |  | 0.01 to 15 |  | 0.01 to 15 | E (501 ≤ E ≤ 10.000) | 9.99 10^−6, cm/s | 52.8 10^−6, cm/s | 5 | 0.01 to 15
9 | Cc1nc2cc(O)c(-c3ccc(N(C)[C@H]4C[C@@H]5CC[C@@H](N5)[C@H]4F)nn3)cc2o1 (single isomer, unassigned) [Compound 40B] |  | 4.71 | 75.8 | 67 | 99 | 16 | 0.01 to 15 | 16 to 50 | 0.01 to 15 |  |  |  |  | 
10 | CN(c1ccc(-c2ccc(-n3ccnc3)cc2O)nn1)[C@@H]1C[C@H]2CC(F)(F)[C@@H](C1)N2 [Compound 13A, 2-(6-(((1S,3R,5R)-6,6-difluoro-8-azabicyclo[3.2.1]octan-3-yl)(methyl)amino)pyridazin-3-yl)-5-(1H-imidazol-1-yl)phenol] | 0.01 to 15 | 8.7 | 50.5 | 92 | 86 | 6 | 0.01 to 15 |  | 16 to 50 |  |  |  |  | 
11 | CN(c1ccc(-c2ccc(-c3cnn(C(F)F)c3)cc2O)nn1)[C@H]1C[C@@H]2CC[C@@H](N2)[C@H]1F [Compound 20B, 5-(1-(difluoromethyl)-1H-pyrazol-4-yl)-2-(6-(((1R,2R,3S,5S)-2-fluoro-8-azabicyclo[3.2.1]octan-3-yl)(methyl)amino)pyridazin-3-yl)phenol] |  | 3.59 | 39.2 | 45 | 65 | 11 | 0.01 to 15 |  | 0.01 to 15 | E (501 ≤ E ≤ 10.000) |  |  |  | 
